This is an account of results in PMC4754833, “Rilpivirine analogs potently inhibit drug-resistant HIV-1 mutants” (Retrovirology, 2016).

Each structure is given as a SMILES string.

The IC50 is the concentration that inhibits the measured activity by half.

Assay [1] has as its system WT HIV-1. Briefly: single round infection luciferase assay, WT HIV-1. Format: cell-based. As to conditions: Human immunodeficiency virus 1. Here is the method:
(§1) The human osteosarcoma cell line, HOS, was obtained from Dr. Richard Schwartz (Michigan State University, East Lansing, MI) and grown in Dulbecco’s modified Eagle’s medium (Invitrogen, Carlsbad, CA) supplemented with 5 % (v/v) fetal bovine serum, 5 % newborn calf serum, and penicillin (50 units/ml) plus streptomycin (50 µg/ml; Quality Biological, Gaithersburg, MD). Virion production and single-round infectivity assays were used to determine antiviral activity (IC50 values) of the compounds as previously described.
(§2) pNLNgoMIVR-ΔEnv.LUC has been described previously. The RT open reading frame was removed from pNLNgoMIVR-ΔEnv.LUC (digestion with SpeI and SalI) and inserted between the SpeI and SalI sites of pBluescript II KS+. Using that construct as the wild-type template, we prepared the following HIV-1 RT mutants using the QuikChange II XL (Stratagene, La Jolla, CA) site-directed mutagenesis protocol kit: L100I, K103N, Y181C, Y188L, H221Y, K103N/Y181C, G190A, G190S, M230L, P236L, L100I/K103N, K103N/P225H, V106A/G190A/F227L, V106A, L234I, V106A/F227L, V106A/L234I, V106A/F227L/L234I, E40K, D67E, K101E, V111A, E138K, M184I, M184V, K101E/M184I, K101E/M184V, E138K/M184I, E138K/M184V, K101P, Y181I, and K101P/V179I. The following sense oligonucleotides were used with matching cognate antisense oligonucleotides (not shown) (Integrated DNA Technologies, Coralville, IA) in the mutagenesis: L100I, 5′-[…]-3′; L100I 2-103, 5′-[…]-3′; K103N, 5′-[…]-3′; Y181C, 5′-[…]-3′; Y188L, 5′-[…]-3′; H221Y, 5′-[…]-3′; G190A, 5′-[…]-3′; G190S, 5′-[…]-3′; P225H, 5′-[…]-3′; F227, 5′-[…]-3′; M230L, 5′-[…]-3′; P236L, 5′-[…]-3′; V106A, 5′-[…]-3′; L234I, 5′-[…]-3′; E40K, 5′-[…]-3′; D67E, 5′-[…]-3′; K101E, 5′-[…]-3′; V111A, 5′-[…]-3′; E138K, 5′-[…]-3′; M184I, 5′-[…]-3′; M184V, 5′-[…]-3′; K101P, 5′-[…]-3′; Y181I, 5′-[…]-3′; K101P/V179I, 5′-[…]-3′. The double mutants K103N/Y181C, K103N/P225H, and L100I/K103N were made using the previously generated K103N mutant and the appropriate oligonucleotides to add the second mutation, Y181C, P225, and L100I respectively. The double mutants V106A/F227L and V106A/L234I were prepared using the previously generated V106A mutant and the appropriate oligonucleotides to add the second mutation, F227L and L234I, respectively. The double mutants K101E/M184I and K101E/M184V were constructed using the previously generated K101E mutant and the appropriate oligonucleotides to add the second mutation, M184I and M184V, respectively. The double mutants E138K/M184I and E138K/M184V were constructed using the previously generated E138K mutant and the appropriate oligonucleotides for the second mutation, M184I and M184V, respectively. The triple mutant V106A/F227L/L234I was made using the previously generated V106A/F227L double mutant and the appropriate oligonucleotides for the third mutation, L234I. The triple mutant V106A/G190A/F227L was constructed in a series of steps using the previously generated V106A mutant and the appropriate oligonucleotides for the second mutation, G190A, to generate the double mutant V106A/G190A, and then the triple mutant was made using double mutant V106A/G190A and oligonucleotides for the third mutation, F227L. The DNA sequence of each construct was verified by DNA sequence determination. The sequences encoding the mutant RTs were then subcloned into pNLNgoMIVR-ΔEnv.LUC (between the KpnI and SalI sites) to produce the mutant HIV-1 constructs. These DNA sequences were also checked independently by DNA sequence determination.
(§3) 10.1186/s12977-016-0244-2 The IC50 values (nM) of RPV and the RPV analogs were determined against the NNRTI resistant mutants were measured by using a single round infection assay, n = 4. The concentrations (nM) are measured by reductions in luciferase reporter activity followed by the standard deviations. […]

Assay [2] relates to HIV-1 RT mutant H221Y. Set-up: method as in PMID 23217210. As to conditions: previous study; cited from earlier work.
Assay [3] deals with HIV-1 RT mutant V106A/G190A/F227L. Briefly: single round infection assay, V106A/G190A/F227L. As to conditions: for IC50: Human immunodeficiency virus 1; for fold-change of IC50 of the mutant relative to WT: V106A/G190A/F227L vs WT. The class given is cell-based. Here is the method: as §1, §2, §3
In assay [4] the test system is HIV-1 RT mutant L100I/K103N. Briefly: single round infection assay, L100I/K103N. The class given is cell-based. As to conditions: for fold-change of IC50 of the mutant relative to WT: L100I/K103N vs WT; for IC50: ± SD, n=4, limit of detection 100 nM. Here is the method: as §1, §2, §3
Assay [5] concerns HIV-1 RT mutant E138K/M184I. The assay can be described thus: single round infection assay, E138K/M184I. The class given is cell-based. As to conditions: for fold-change of IC50 of the mutant relative to WT: E138K/M184I vs WT; for IC50: ± SD, n=4. Here is the method:
as §1, §2, §3

The subject of assay [6] is HIV-1 RT mutant P236L. The assay can be described thus: single round infection assay, P236L. The class given is cell-based. As to conditions: Human immunodeficiency virus 1. Here is the method:
as §1, §2, §3

Assay [7] relates to HIV-1 RT mutant D67E. Briefly: single round infection assay, D67E. As to conditions: for fold-change of IC50 of the mutant relative to WT: D67E vs WT; for IC50: ± SD, n=4. The class given is cell-based. The protocol: as §1, §2, §3
Assay [8] relates to HIV-1 RT mutant G190S. The assay can be described thus: single round infection assay, G190S. Format: cell-based. As to conditions: Human immunodeficiency virus 1. The protocol: as §1, §2, §3
Assay [9] has as its system HIV-1 RT mutant K101P/V179I. The assay can be described thus: single round infection assay, K101P/V179I. The class given is cell-based. As to conditions: for IC50: Human immunodeficiency virus 1; for fold-change of IC50 of the mutant relative to WT: K101P/V179I vs WT. The protocol: as §1, §2, §3
The test system of assay [10] is HIV-1 RT mutant M230L. The assay can be described thus: single round infection assay, M230L. Format: cell-based. As to conditions: for fold-change of IC50 of the mutant relative to WT: M230L vs WT; for IC50: ± SD, n=4, limit of detection 100 nM. Here is the method: as §1, §2, §3
Assay [11] has as its system HIV-1 RT mutant K103N/P225H. The assay can be described thus: single round infection assay, K103N/P225H. As to conditions: for IC50: Human immunodeficiency virus 1; for fold-change of IC50 of the mutant relative to WT: K103N/P225H vs WT. The class given is cell-based. The protocol:
as §1, §2, §3

The subject of assay [12] is HIV-1 RT mutant Y181C. More on the design: method as in PMID 23217210. As to conditions: previous study; cited from earlier work.
Assay [13] has as its system HIV-1 RT mutant E138K/M184V. Briefly: single round infection assay, E138K/M184V. Format: cell-based. As to conditions: for fold-change of IC50 of the mutant relative to WT: E138K/M184V vs WT; for IC50: ± SD, n=4. Here is the method:
as §1, §2, §3

Where [14] appears, read: Human immunodeficiency virus 1, E138K/M184V.
Setting [15] is: Human immunodeficiency virus 1, D67E.
Setting [16] is: Human immunodeficiency virus 1, E138K/M184I.
[17] abbreviates: Human immunodeficiency virus 1, M230L.
Where [18] appears, read: Human immunodeficiency virus 1, L100I/K103N.

For the compound `Cc1cc(/C=C/C#N)cc(C)c1Nc1ccnc(Nc2ccc(C#N)cc2)n1` [RPV, rilpivirine], the IC50 in [1] was 0.24 ± 0.1 nM; in assay [2] it was under 7 nM; in assay [3] it was 0.5 ± 0.02 nM; in assay [6], 0.2 nM; in assay [8] it was 0.11 ± 0.01 nM; in assay [9] it was 93.5 ± 12.1 nM. For the same compound, the IC50 in assay [11] is 0.6 ± 0.2 nM; in assay [12] it was under 7 nM; in [13] (E138K/M184V) it was 1.3 ± 0.4 nM; in assay [13] (setting [14]) it was under 2.5 nM. Further, the “fold-change of IC50 of the mutant relative to WT” value is recorded as 2 in assay [3]; 10 in assay [4]; 5 in assay [5]; 3 in assay [7]; 390 in assay [9]; 7 in assay [10]. The figures for the “fold-change of IC50 of the mutant relative to WT” value in [11] and in [13] were 3 and 5, respectively.
On to `Cc1cc(/C=C/C#N)cc(C)c1Nc1nc(Nc2ccc(C#N)cc2)ncc1[N+](=O)[O-]` [compound 6], for which the IC50 was 0.5 ± 0.17 nM in [1]; under 7 nM in assay [2]; 1.1 ± 0.2 nM in [3]; 0.23 ± 0.06 nM in assay [6]; 1.7 ± 0.14 nM in assay [7] (D67E); under 2.5 nM in [7] (setting [15]). The IC50 was 0.2 ± 0.09 nM in assay [8]; 12.6 nM in assay [9]; 0.8 ± 0.06 nM in [11]; under 7 nM in [12]; 1.63 ± 0.08 nM in assay [13] (E138K/M184V); under 2.5 nM in assay [13] (setting [14]). The “fold-change of IC50 of the mutant relative to WT” value in assay [3] worked out at 2; in assay [4], 4; in [5] it was 2; in assay [7] it was 3; in assay [9], 25; in assay [10] it was 6. In addition, the “fold-change of IC50 of the mutant relative to WT” value in assay [11] is given as under 2; in assay [13], 3.
For `Cc1cc(/C=C/C#N)cc(C)c1Nc1nc(Nc2ccc(C#N)cc2)ncc1N` [compound 7], the IC50 in assay [1] is 0.78 ± 0.2 nM; in [2], under 7 nM; in assay [3] it was 1.4 ± 0.4 nM; in [5] (E138K/M184I) it was 2.9 ± 0.6 nM; in assay [5] (setting [16]) it was under 2.5 nM; in assay [6], 0.22 ± 0.06 nM. For the same compound, the IC50 is 4.5 ± 1.1 nM in [7] (setting [15]); 0.4 ± 0.07 nM in assay [8]; 81.4 ± 8.1 nM in assay [9]; under 6.1 nM in assay [10] (setting [17]); 4 ± 2 nM in [10] (M230L); 1.1 ± 0.25 nM in assay [11]. Moreover, the IC50 was under 7 nM in [12], 2.4 ± 0.2 nM in assay [13] (E138K/M184V) and under 2.5 nM in assay [13] (setting [14]). The “fold-change of IC50 of the mutant relative to WT” value in [3] was under 2; in [4] it was 2; in [5], 4; in [7] it was 6; in assay [9] it was 104; in [10], 5. Further, the figures for the “fold-change of IC50 of the mutant relative to WT” value in [11] and in assay [13] were under 2 and 3, respectively.
For the compound `Cc1cc(/C=C/C#N)cc(C)c1Nc1ncc([N+](=O)[O-])c(Nc2ccc(C#N)cc2)n1` [compound 8], the half-inhibitory concentration (IC50) in [1] was 1.6 ± 0.2 nM; in [2], under 7 nM; in [3], 2.8 ± 0.42 nM; in assay [4] (setting [18]) it was under 5.4 nM; in assay [4] (L100I/K103N) it was 5.4 ± 0.35 nM; in assay [6], 0.61 ± 0.07 nM. The IC50 is 12.7 nM in [7] (setting [15]); 0.17 ± 0.02 nM in assay [8]; 29.8 ± 5.4 nM in [9]; 11.9 nM in assay [10] (setting [17]); 1.2 ± 0.33 nM in [11]; under 7 nM in assay [12]. For the same compound, the “fold-change of IC50 of the mutant relative to WT” value in assay [3] was under 2; in assay [4] it was 3; in [5], under 2; in assay [7], 8; in assay [9], 19; in assay [10], 7. Moreover, in assay [13], the “fold-change of IC50 of the mutant relative to WT” value is listed as under 2.
For the compound `Cc1cc(/C=C/C#N)cc(C)c1Nc1ncc2ncn(-c3ccc(C#N)cc3)c2n1` [compound 26], the IC50 in assay [1] is 7.7 nM; in assay [3], 46.2 ± 11.1 nM; in [4] (setting [18]), over 100 nM; in assay [5] (setting [16]) it was 24.5 ± 4.8 nM; in assay [6], 2.91 nM; in [7] (setting [15]), 62.3 ± 1.3 nM. In addition, the IC50 is 2.1 nM in assay [8]; over 100 nM in [9]; over 100 nM in assay [10] (setting [17]); 12.9 nM in assay [11]; 13.2 ± 2.3 nM in [13] (setting [14]). Besides, the “fold-change of IC50 of the mutant relative to WT” value in assay [3] was 6; in [5], 3; in [7], 8; in [11] it was under 2; in assay [13], under 2.
